{"source": "patent US11510928B2", "about": "“Use of mirtazapine in the treatment of inflammatory disorders, autoimmune disease and PBC” (UTI Limited Partnership, priority 2017, dated 2022)", "key": {"[1]": {"assay": "Liver injury after mirtazapine alone (serum ALT, histology)", "assay_type": "in vivo, mouse", "conditions": "data not shown", "method": "Male 8-10 week old C57BL/6 mice (Jackson Labs, Bar Harbor, Me.) were used. All procedures were approved by the University of Calgary Animal Care Committee (protocol numbers AC14-0129 and AC14-0128) and were performed in accordance with the guidelines of the Canadian Council on Animal Care. To delineate the impact of mirtazapine treatment upon liver immune cell numbers and phenotype, and upon cytokine/chemokine networks within the liver, mice were treated with mirtazapine 1-20 mg/kg intraperitoneally^13-15. Mirtazapine was suspended in 1% aqueous solution of Tween 80, whereas the control group received 1% aqueous solution of Tween 80. Blood and liver samples were collected 5 hours post-mirtazapine treatment (or 16 hours post-Con A treatment). The detailed experimental protocols, lists of antibodies and reagents used, flow cytometry gating, and immune cell phenotyping strategies, are described herein.\nTo assess liver injury, plasma alanine aminotransferase (ALT) activity was measured (Roche-Hitachi Modular-P800 apparatus; Roche, Mannheim, Germany). Additionally, formalin-fixed liver tissue slices were stained with Hematoxylin and Eosin (H&E) for microscopic examination. Extent of liver parenchymal necrosis was quantitated as previously described, using an Olympus XC10 camera (acquired using the Olympus VS-ASW software package; original magnification ×400). […]"}, "circulating TNFα": {"test_system": "circulating TNFα", "conditions": "patients with major depressive disorder; cited from earlier work"}, "[2]": {"test_system": "patients registered in THIN database", "assay": "THIN cohort study 1995-2017: incidence of IMIDs according to mirtazapine exposure (Example 9)", "assay_type": "in vivo, human", "conditions": "THIN 1995-2017", "source_text": "Data source: THIN is a primary care patient oriented electronic medical record (EMR) database. It is one of the largest medical databases in the UK, consisting of prospectively gathered electronic medical records from over 11.1 million patients (˜3.7 million active patients), the equivalent to 75.6 million patient years, from more than 560 general practices in the UK, covering 6.2% of the UK population. All data elements are fully anonymised and validated by Cegedim Strategic Data (CSD)-Medical Research UK. […] Data from participant general practitioners across the UK are exported to THIN administrators and the database is updated every 3 months.\nStudy cohort: All adult patients (18 years) registered in THIN database starting from Jan. 1, 1995. Since mirtazapine was approved and available in the UK, Europe, and US markets by 1996, all patients who were prescribed mirtazapine with a prescription duration longer than 30 days, were defined as incident cases. We assessed the hazard of developing each studied IMID (CD, UC, psoriasis, MS or RA) separately. […] Similarly, in the same MS cohort, if a patient develops another IMID of interest prior to a diagnosis of MS, the index date of outcome will be the date of MS diagnosis. In all of our cohorts, we will follow patients from study start date until an incident diagnosis of IMID of interest, death, loss to follow-up or end of follow-up.\nInclusion and exclusion criteria: Patients should not have any interruption of registration or leave of practice. Cases with mirtazapine prescription duration of less than 30 days or unknown duration were excluded from the study.\nExposure variable of interest: Our primary exposure variable was mirtazapine. We used Read codes to identify mirtazapine usage, duration, dose, and start date. Our primary outcome was the incident diagnosis of one of the following conditions: Crohn's disease, multiple sclerosis, psoriasis, rheumatoid arthritis, and ulcerative colitis during study follow-up period (1995-2017).\na) Demographic covariates: Pre-specified covariates include age at diagnosis; sex; and cigarette smoking status is defined either (1) current smoker, coded for smoking within 12 months of the index date (condition diagnosis date); (2) ex-smoker, coded for smoking before but not within 12 months of the index date; or (3) never smoked, coded either as a lifetime non-smoker or not recorded as a smoker; alcohol consumption classified as current, former, never consumed alcohol, or unknown status at diagnosis; body mass index (weight in kg and height in m2); and socioeconomic status measured by the Mosaic scale which is a consumer classification scale that captures demographics, lifestyles, and behaviours (10 classes).\nb) Depression: Read codes were used to identify patients with major depressive disorder (MDD). Read codes associated with only symptoms of depression, bipolar disorder, mania or hypomania were excluded. MDD was defined as (1) never diagnosed with MDD; (2) past MDD diagnosis prior to 90 days from index date; or (3) current MDD diagnosis if a diagnosis was made within 90 days before or after the index date.\nc) Comorbidities: We used the Quality and Outcomes Framework (QOF) Read codes to assess for the following comorbidities: asthma, atrial fibrillation, cancer, chronic kidney disease (stages 3-5), chronic obstructive pulmonary disease, coronary heart disease, dementia, diabetes, epilepsy, heart failure, hypertension, and hypothyroid. […]"}, "[3]": {"test_system": "antigen-induced arthritis (mBSA)", "assay": "Antigen-induced arthritis (AIA) mouse model", "assay_type": "in vivo", "conditions": "20 mg/kg, 24 hrs post-antigen challenge", "source_text": "The antigen-induced arthritis (AIA) mouse model is a well-characterized model that is extensively used to provide insights into the pathogenesis of RA. AIA is critically dependent on an early innate immune response (within 24 hrs post-induction) mediated by synovial TM's and neutrophils which drive subsequent adaptive immune responses and chronic joint inflammation. Proinflammatory cytokines (eg. TNFα, IL-17A and IL-1) and chemokines (eg. CXCL1, CXCL2) recruit neutrophils to the joint in this model. AIA is induced by the intradermal (tail base) injection of 500 μg methylated BSA (mBSA; Sigma) in 50 μl saline+complete Freund's adjuvant (CFA; Sigma) on day 0. 14 days later mice receive an antigen challenge with mBSA (10 μg/10 μl saline) injection into the left knee joint. At various time points after antigen challenge knee swelling is assessed using calipers, and the knee cavity exposed and inflammatory response and tissue injury assessed by immune cell analyses (cell phenotyping by FACS, using our published protocols), cytokine/chemokine expression (by Luminex® and qRT-PCR), and scoring of histological joint damage. Assessment of joint innate immune responses will occur at 24 and 48 hrs post-antigen challenge42. […] Hypernociception was measured before and 24 hrs post-antigen challenge using an automatic dynamic plantar algesiometer (Hugo Basile Inc)."}}, "data": [{"smiles": "CN1CCN2c3ncccc3Cc3ccccc3C2C1", "note": "(stereo not drawn) [Mirtazapine]", "values": [{"measurement": "Liver injury as reflected by serum ALT levels or histology", "setting": "[1]", "result": "did not induce liver injury"}, {"measurement": "Circulating TNFα levels", "setting": "circulating TNFα", "result": "increased circulating TNFα levels"}, {"measurement": "Adjusted incidence rate ratio, Multiple sclerosis", "setting": "[2]; N = 371, P = 0.006", "result": "0.80 (0.71-0.88)"}, {"measurement": "Adjusted incidence rate ratio, Crohn's Disease", "setting": "[2]; N = 490, P = 0.89", "result": "1.00 (0.93-1.07)"}, {"measurement": "Adjusted incidence rate ratio, Ulcerative Colitis", "setting": "[2]; N = 1375, P = 0.002", "result": "0.84 (0.81-0.88)"}, {"measurement": "Adjusted incidence rate ratio, R. arthritis", "setting": "[2]; N = 1792, P < 0.001", "result": "0.55 (0.51-0.60)"}, {"measurement": "Adjusted incidence rate ratio, Psoriasis", "setting": "[2]; N = 5181, P = 0.002", "result": "0.93 (0.88-0.98)"}, {"measurement": "AIA-induced hypernociception", "setting": "[3]", "result": "attenuates"}, {"measurement": "Joint total neutrophil recruitment", "setting": "[3]", "result": "reduces"}, {"measurement": "Synovial fluid CXCL1 levels", "setting": "[3]", "result": "but not CXCL1"}, {"measurement": "Synovial fluid IL-1α levels", "setting": "[3]", "result": "reduces"}, {"measurement": "Synovial fluid TNFα levels", "setting": "[3]", "result": "reduces"}]}]}
